From patent US6864086B2, “Nitric oxide-scavenging system for culturing oocytes, embryos, or other cells” (Board of Supervisors of Louisiana State University and …, priority 1998, dated 2005)
Values joined by “and” are separate entries in the source; they are usually repeats but may differ in a detail not shown here. Equal entries are not always repeated. Marks after values point to notes of the source that are not given here.

What was measured:
Assay type in all cases: cell-based
[1] = tested on: bovine embryos cultured in groups; experiment: Example 6: Hb (1 μg/ml) in mBECM-C in presence or absence of cumulus-granulosa cells
Procedure: (§1) mBECM containing 10 μM β-mercaptoethanol was used to culture embryos, as described in J. Lim et al., “Roles of growth factors in the development of bovine embryos fertilized in vitro and cultured singly in a defined medium,” Reprod. Fertil. Dev., 8, 1199-1205 (1996). To culture individual 8-cell embryos we used mBECM supplemented with 1 ng/ml platelet derived growth factor type AB (PDGF; Upstate Biotechnology Inc., Lake Placid, N.Y.), 1 ng/ml transforming growth factor-β (TGF; R & D System, Minneapolis, Minn.), 50 ng/ml arachidonic acid (AA; Cayman Chemical Co., Ann Arbor, Mich.), 100 μM glutathione (GSH; Sigma Co.) and 1 mg/ml polyvinyl alcohol (PVA) (mBECM-S). mBECM to which 10% (v/v) FBS was added (mBECM-C) was used for co-culturing inseminated zygotes with CGs and for producing 8-cell embryos. Osmolarity of the medium was maintained within the range of 265-290 mOsm.
(§2) The bovine cumulus-oocyte complexes (COCs) used were collected in Madison, Wis. (BOMED, Inc.), and were shipped in 2-ml of maturation medium in a battery powered incubator via overnight express mail service. Oocytes matured during transit and arrived within 24 h after exposure to maturation medium, pre-equilibrated at 39° C. in 5% CO2 in air. At 22-24 h after exposure to the medium, the COCs were inseminated in vitro as described in J. Lim et al., “Intracytoplasmic glutathione concentration and the role of β-mercaptoethanol in preimplantation development of bovine embryos,” Theriogenology, 46, 429-439 (1996). At 18 h post-insemination, COCs were cultured in groups (30-35 embryos) in a 4-well multidish (Nunc, Roskilde, Denmark) containing 0.8-ml of mBECM-C. Embryos were dislodged from CGs at 36-48 h post-insemination.
(§3) In Example 1, embryos (83-85 per group) collected 18 h post-insemination were cultured in mBECM-C, to which 0, 0.008, or 0.04 mM SNP was added at 18 or 60 h post-insemination. In Example 2, 8-cell embryos (80 per group) were produced in a co-culture system containing CGs and mBECM-C, and then beginning at 60 h post-insemination were cultured singly in a defined culture medium (mBECM-S), to which 0, 0.0016, 0.008, or 0.04 mM of SNP (S-0501, Sigma Co.) was added. In Example 3 embryos, either uncleaved (n=99) or developed to the 2-cell stage (90), were collected 48 h post-insemination; and cleaved embryos, either developed to the morula stage (69) or degenerate (63) were collected 144 h post-insemination. NO metabolites were then measured in the embryos. In Example 4, three groups of 95 zygotes each were co-cultured with CGs in mBECM-C, to which 0, 1, or 10 μg/ml Hb (bovine, mainly methemoglobin, H-2500, Sigma Co.) was added. […] Inseminated oocytes (104 per group) were co-cultured with CGs in MBECM-C up to 192 h post-insemination; and Hb (1 μg/ml) was added to the medium at 18, 60, or 144 h post-insemination. In Example 6, inseminated oocytes (93 per group) were cultured in the presence or absence of CGs in mBECM-C to which either 0 or 1 μg/ml Hb was added. In Example 7, 8-cell embryos (100 per group), obtained after culture in mBECM-C supplemented with Hb (1 μg/ml), were cultured singly in mBECM-S, with or without Hb.
Oocytes or 8-cell embryos were randomly and equally allocated to each treatment group. In Examples 1, 2, and 4-7, oocytes or embryos that had developed to the 2-cell, 8-cell, >8-cell, 16-cell morula, and blastocyst stages were individually scored ‘1’ (developed) at 48, 60, 96, 120, 144 and 192 h post-insemination, respectively. […] Sums of the scores in each stage of development were evaluated by analysis of variance (ANOVA) using the general linear model (PROC-GLM) in the SAS program software. In Example 3, concentrations of NO metabolites in embryos were subjected to ANOVA. […] Differences were regarded as statistically significant where P values were less than 0.05.

[2] = tested on: 8-cell bovine embryos cultured singly; experiment: Example 7: Hb (1 μg/ml) in mBECM-S, 8-cell embryos derived from Hb-containing co-culture, cultured singly
Procedure: as §1, §2
as §3, with “In Example 7, 8-cell embryos (100 per group), obtained after culture in mBECM-C supplemented with Hb (1 μg/ml), were cultured singly in mBECM-S, with or without Hb.” left out
Oocytes or 8-cell embryos were randomly and equally allocated to each treatment group. In Examples 1, 2, and 4-7, oocytes or embryos that had developed to the 2-cell, 8-cell, >8-cell, 16-cell morula, and blastocyst stages were individually scored ‘1’ (developed) at 48, 60, 96, 120, 144 and 192 h post-insemination, respectively. […] Sums of the scores in each stage of development were evaluated by analysis of variance (ANOVA) using the general linear model (PROC-GLM) in the SAS program software. […]

[3] = tested on: bovine blastocysts; experiment: Example 8 supplemental: blastocyst cell number by Hoechst 33342 stain; settings: 8 days after insemination; Hb 1 μg/ml added to culture medium; vs. 124.2±8.4
Procedure: In Example 8, bovine follicular oocytes were collected from November 1996 to May 1997, and matured and fertilized in culture. (Oocytes collected during summer and early fall were not used in this study, to avoid interference from environmental heat stress on in vitro survival of embryos.) IVF embryos were collected at 18 h post-insemination and cultured in mBECM supplemented with FBS (10%, v/v), to which 0 or 1 μg/ml Hb (from bovine, mainly methemoglobin, H-2500, Sigma Co.) was added. Development of embryos to the 2-cell, 8-cell, 16-cell, morula, and blastocyst stages was monitored 48, 60, 120, 144 and 192 h post-insemination, respectively. As a supplemental experiment, some blastocysts in each treatment (20 or 28) were randomly collected, and the cell number of the blastocysts was counted by use of Hoechst stain 33342 and a fluorescent microscope (Diaphod, Nikkon, Tokyo, Japan). This experiment used 1675 embryos in 25 replicates, with IVF embryos randomly allotted among treatments.

hemoglobin [Hb]
Percent of Embryos Developed to 2-cell ([1]; Hb 1 μg/ml + CG): 77%
Percent of Embryos Developed to 8-cell ([1]; Hb 1 μg/ml + CG): 55%
Percent of Embryos Developed to 16-cell ([1]; Hb 1 μg/ml + CG): 51% and 51^b %
Percent of Embryos Developed to Blastocyst ([1]; Hb 1 μg/ml + CG): 33% and 33^b %
Percent of Embryos Developed to Morula ([1]; Hb 1 μg/ml + CG): 40% and 40^b %
Percent of Embryos Developed to 2-cell ([1]; Hb 1 μg/ml only, absence of CG): 73%
Percent of Embryos Developed to 8-cell ([1]; Hb 1 μg/ml only, absence of CG): 52%
Percent of Embryos Developed to 16-cell ([1]; Hb 1 μg/ml only, absence of CG): 34^a %
Percent of Embryos Developed to Blastocyst ([1]; Hb 1 μg/ml only, absence of CG): 19^a %
Percent of Embryos Developed to Morula ([1]; Hb 1 μg/ml only, absence of CG): 27^ab %
promotion of pre-hatching development of embryos ([1]; Hb 1 μg/ml, cultured in the absence of CG): not seen to promote
Number of embryos developed to >8-cell ([2]; Hb 1 μg/ml present in mBECM-S, 100 8-cell embryos, examined 96 h): 68
Number of embryos developed to 16-cell ([2]; Hb 1 μg/ml present in mBECM-S, 100 8-cell embryos, examined 120 h): 44
Number of embryos developed to Morula ([2]; Hb 1 μg/ml present in mBECM-S, 100 8-cell embryos, examined 144 h): 26
Number of embryos developed to Blastocyst ([2]; Hb 1 μg/ml present in mBECM-S, 100 8-cell embryos, examined 192 h): 8
effect on proportions of 8-cell embryos developing to each embryonic stage ([2]; Hb added to mBECM-S, P>0.09): no significant effect
number of blastocyst cells [3]: 128.6±7.1
